Where two headings read alike, the source gives them in different places. Ends that are not written are not given here.
Legend:
[1] = tested on: cGMP synthesis in isolated intrapulmonary arteries; assay: cGMP content in isolated rat intrapulmonary arteries; settings: for ET-1-stimulated cGMP synthesis in the presence of bosentan / ET-1 plus riociguat-stimulated cGMP synthesis in the presence of bosentan: 100 nM bosentan; for ET-1-stimulated cGMP synthesis in the presence of bosentan: 8 nM ET-1; for ET-1 plus riociguat-stimulated cGMP synthesis in the presence of bosentan: 8 nM ET-1 plus 30 nM riociguat
[2] = tested on: endothelin-1 (ET-1)-constricted intrapulmonary arteries isolated from rats; assay: relaxation of ET-1-induced contraction of isolated rat intrapulmonary arterial rings; settings: for relaxation of ET-1-constricted intrapulmonary arteries: 8 nM ET-1; for effect on potency of the other drug to relax ET-1 constricted rat pulmonary arteries: qualitative (FIG. 6, FIG. 7)
[3] = tested on: phosphorylation of MLC2 by MLCK; assay: ET-1-stimulated phosphorylation of MLC2 by MLCK in rat pulmonary arteries; settings: qualitative (FIG. 10)
Description: Further, ambrisentan and riociguat attenuated ET-1 stimulated phosphorylation of MLC2 by MLCK in rat pulmonary arteries (FIG. 10).

ETA receptor = biological target: T1, ETA receptor (Homo sapiens, UniProt P25101); settings: background statement; read-out: affinity for the ETA receptor; cited from earlier work
T1 sequence (P25101 21-427): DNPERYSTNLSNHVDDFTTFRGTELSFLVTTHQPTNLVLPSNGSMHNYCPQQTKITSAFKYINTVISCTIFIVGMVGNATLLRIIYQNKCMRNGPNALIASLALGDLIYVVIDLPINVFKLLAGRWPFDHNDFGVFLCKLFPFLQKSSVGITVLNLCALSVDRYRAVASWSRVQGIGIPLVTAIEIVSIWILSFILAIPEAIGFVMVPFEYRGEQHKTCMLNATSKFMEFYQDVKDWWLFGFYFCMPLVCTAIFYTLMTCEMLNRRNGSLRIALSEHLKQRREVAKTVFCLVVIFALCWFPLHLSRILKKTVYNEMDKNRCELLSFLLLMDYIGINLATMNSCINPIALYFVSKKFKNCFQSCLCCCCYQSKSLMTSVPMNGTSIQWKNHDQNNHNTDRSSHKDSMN

[4] = 30 nM alone, another run (FIG. 3, FIG. 4)
[5] = 30 nM alone, first run (FIG. 2), mean±SEM

## Endothelin-1 (CSCSSLMDKECVYFCHLDIIW; ends and bridges not checked; cysteine pairing not given here; UniProt P05305 53-73, looked up) [ET-1]
[1]; 10 nM ET-1 alone
  content of cGMP: 37±4 pmol/g tissue

## COc1ccccc1Oc1c(NS(=O)(=O)c2ccc(C(C)(C)C)cc2)nc(-c2ncccn2)nc1OCCO [bosentan]
[1]; another run (FIG. 9)
  ET-1-stimulated cGMP synthesis in the presence of bosentan: 36 pmol/g tissue
  ET-1 plus riociguat-stimulated cGMP synthesis in the presence of bosentan: 97 pmol/g tissue
[1]; first run
  ET-1-stimulated cGMP synthesis in the presence of bosentan: 21±3 pmol/g tissue
  ET-1 plus riociguat-stimulated cGMP synthesis in the presence of bosentan: 37±3 pmol/g tissue
[1]; qualitative
  blocking of ET-1 and its combination with riociguat to stimulate cGMP synthesis: significantly blocked
[2]; 100 nM alone, another run (FIG. 4)
  relaxation of ET-1-constricted intrapulmonary arteries: 19.8%
[2]; 100 nM alone, first run (FIG. 2), mean±SEM
  relaxation of ET-1-constricted intrapulmonary arteries: 23±3%

## COC(=O)N(C)c1c(N)nc(-c2nn(Cc3ccccc3F)c3ncccc23)nc1N [riociguat, methyl (4,6-diamino-2-(1-(2-fluorobenzyl)-1H-pyrazolo[3,4-b]pyridin-3-yl)pyrimidin-5-yl)(methyl)carbamate]
[1]; 10 nM ET-1 and 30 nM riociguat in combination
  content of cGMP: 96±7 pmol/g tissue
[1]; 30 nM riociguat alone
  content of cGMP: 34±5 pmol/g tissue
[1]; qualitative (FIG. 8)
  effect on ET-1-stimulated cGMP production: potentiated ET-1-stimulated cGMP production
[2]; [4]
  relaxation of ET-1-constricted intrapulmonary arteries: 23.2±6.5%
[2]; [5]
  relaxation of ET-1-constricted intrapulmonary arteries: 23±3%
[2]
  effect on potency of the other drug to relax ET-1 constricted rat pulmonary arteries: increased the potency of ambrisentan
[3]
  effect on ET-1 stimulated phosphorylation of MLC2 by MLCK: attenuated

## COC(c1ccccc1)(c1ccccc1)[C@H](Oc1nc(C)cc(C)n1)C(=O)O [ambrisentan, (2S)-2-[(4,6-dimethylpyrimidin-2-yl)oxy]-3-methoxy-3,3-diphenylpropanoic acid]
[1]; qualitative
  blocking of ET-1 and its combination with riociguat to stimulate cGMP synthesis: but not ambrisentan, significantly blocked
ETA receptor
  Ki: ~0.012 nM
[2]; 10 nM alone, another run (FIG. 3), mean±SEM
  relaxation of ET-1-constricted intrapulmonary arteries: 28.5±6.4%
[2]; 10 nM alone, first run (FIG. 2), mean±SEM
  relaxation of ET-1-constricted intrapulmonary arteries: 29±6%
[2]
  effect on potency of the other drug to relax ET-1 constricted rat pulmonary arteries: increased the potency of riociguat
[3]
  effect on ET-1 stimulated phosphorylation of MLC2 by MLCK: attenuated

## CCCNS(=O)(=O)Nc1ncnc(OCCOc2ncc(Br)cn2)c1-c1ccc(Br)cc1 [macitentan]
[2]; [4]
  relaxation of ET-1-constricted intrapulmonary arteries: 30.1%
[2]; [5]
  relaxation of ET-1-constricted intrapulmonary arteries: 30±6%

## COC(=O)[C@@H](N)CCCN=C(N)N[N+](=O)[O-].Cl [L-NAME]
[1]
  blocking of ET-1 and its combination with riociguat to stimulate cGMP synthesis: significantly blocked

— US20150125546A1, “COMBINATION THERAPY FOR TREATING PULMONARY HYPERTENSION” (Gilead Sciences, Inc., priority 2013, published 2015)
